Test results taken from the supplement of paper PMC10307832.

How the values were obtained:
Experiment in all cases: relative viability (nuclei count vs DMSO), 5 days (fraction); higher = more cells survive
Bosutinib = compound: COc1cc(Nc2c(C#N)cnc3cc(OCCCN4CCN(C)CC4)c(OC)cc23)c(Cl)cc1Cl [Bosutinib]
How it was run: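 After an overnight hold at 37 °C, lung cancer cell lines in 1536-well plates were pinned with five library-drug doses (not always all listed), each √10 from the next, on vehicle-anchored plates. The cells stayed 5 days without fresh medium, then a one-step fix, permeabilisation and Hoechst stain preceded 4× imaging and MetaXpress nuclear counts. A plate passed only with control CV under 25% and at least one doubling. Viability is the median, over plates, of treated-well nuclei relative to vehicle-well nuclei.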

Bosutinib + Navitoclax = compound: COc1cc(Nc2c(C#N)cnc3cc(OCCCN4CCN(C)CC4)c(OC)cc23)c(Cl)cc1Cl [Bosutinib] + CC1(C)CCC(c2ccc(Cl)cc2)=C(CN2CCN(c3ccc(C(=O)NS(=O)(=O)c4ccc(N[C@H](CCN5CCOCC5)CSc5ccccc5)c(S(=O)(=O)C(F)(F)F)c4)cc3)CC2)C1 [Navitoclax] (partner 0.5 µM)
How it was run: (§1)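 The day after seeding in 1536-well plates, lung cancer cell lines were treated by pin tool with a single drug, or with a fixed anchor-drug dose together with five library-drug doses (not always all listed) in √10 steps. After 5 days, a combined fix-and-stain solution (final 0.05% Triton X-100, 1% formaldehyde, 1 ug/ml Hoechst) was added. Nuclei counted on 4× images gave relative viability as treated counts over vehicle counts, reported as the median of duplicate plates.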

Bosutinib + Foretinib = compound: COc1cc(Nc2c(C#N)cnc3cc(OCCCN4CCN(C)CC4)c(OC)cc23)c(Cl)cc1Cl [Bosutinib] + COc1cc2c(Oc3ccc(NC(=O)C4(C(=O)Nc5ccc(F)cc5)CC4)cc3F)ccnc2cc1OCCCN1CCOCC1 [Foretinib] (partner 0.25 µM)
How it was run: as §1

Bosutinib + Lapatinib = compound: COc1cc(Nc2c(C#N)cnc3cc(OCCCN4CCN(C)CC4)c(OC)cc23)c(Cl)cc1Cl [Bosutinib] + CS(=O)(=O)CCNCc1ccc(-c2ccc3ncnc(Nc4ccc(OCc5cccc(F)c5)c(Cl)c4)c3c2)o1 [Lapatinib] (partner 2 µM)
How it was run: as §1

Bosutinib + Pictilisib = compound: COc1cc(Nc2c(C#N)cnc3cc(OCCCN4CCN(C)CC4)c(OC)cc23)c(Cl)cc1Cl [Bosutinib] + CS(=O)(=O)N1CCN(Cc2cc3nc(-c4cccc5[nH]ncc45)nc(N4CCOCC4)c3s2)CC1 [Pictilisib] (partner 1 µM)
How it was run: as §1

Bosutinib + Crizotinib = compound: COc1cc(Nc2c(C#N)cnc3cc(OCCCN4CCN(C)CC4)c(OC)cc23)c(Cl)cc1Cl [Bosutinib] + C[C@@H](Oc1cc(-c2cnn(C3CCNCC3)c2)cnc1N)c1c(Cl)ccc(F)c1Cl [Crizotinib] (partner 1 µM)
How it was run: as §1

Bosutinib + Linsitinib = compound: COc1cc(Nc2c(C#N)cnc3cc(OCCCN4CCN(C)CC4)c(OC)cc23)c(Cl)cc1Cl [Bosutinib] + C[C@]1(O)C[C@@H](c2nc(-c3ccc4ccc(-c5ccccc5)nc4c3)c3c(N)nccn32)C1 [Linsitinib] (partner 1 µM)
How it was run: as §1

Bosutinib + Alpelisib = compound: COc1cc(Nc2c(C#N)cnc3cc(OCCCN4CCN(C)CC4)c(OC)cc23)c(Cl)cc1Cl [Bosutinib] + Cc1nc(NC(=O)N2CCC[C@H]2C(N)=O)sc1-c1ccnc(C(C)(C)C(F)(F)F)c1 [Alpelisib] (partner 2 µM)
How it was run: as §1

Bosutinib + Phenformin = compound: COc1cc(Nc2c(C#N)cnc3cc(OCCCN4CCN(C)CC4)c(OC)cc23)c(Cl)cc1Cl [Bosutinib] + N=C(N)NC(=N)NCCc1ccccc1 [Phenformin] (partner 250 µM)
How it was run: as §1

Bosutinib + Decitabine = compound: COc1cc(Nc2c(C#N)cnc3cc(OCCCN4CCN(C)CC4)c(OC)cc23)c(Cl)cc1Cl [Bosutinib] + Nc1ncn([C@H]2C[C@H](O)[C@@H](CO)O2)c(=O)n1 [Decitabine] (partner 2 µM)
How it was run: as §1

Bosutinib + Olaparib = compound: COc1cc(Nc2c(C#N)cnc3cc(OCCCN4CCN(C)CC4)c(OC)cc23)c(Cl)cc1Cl [Bosutinib] + O=C(c1cc(Cc2n[nH]c(=O)c3ccccc23)ccc1F)N1CCN(C(=O)C2CC2)CC1 [Olaparib] (partner 8 µM)
How it was run: as §1

A549 gave a relative viability (Bosutinib; 0.01 µM) of 1, a relative viability (Bosutinib; 0.03162 µM) of 1.04 and a relative viability (Bosutinib; 0.1 µM) of 1.01. It also gave a relative viability (Bosutinib; 1 µM) of 0.939, a relative viability (Bosutinib + Navitoclax; first compound 0.01 µM) of 1.2 and a relative viability (Bosutinib + Navitoclax; first compound 0.03162 µM) of 1.26. It also gave a relative viability (Bosutinib + Navitoclax; first compound 0.1 µM) of 1.27, a relative viability (Bosutinib + Navitoclax; first compound 1 µM) of 1.07 and a relative viability (Bosutinib + Foretinib; first compound 0.01 µM) of 0.946. For the same cell line, the relative viability (Bosutinib + Foretinib; first compound 0.03162 µM) was 1, the relative viability (Bosutinib + Foretinib; first compound 0.1 µM) was 0.92 and the relative viability (Bosutinib + Foretinib; first compound 1 µM) was 0.908. The relative viability (Bosutinib + Lapatinib; first compound 0.01 µM) was 0.949, the relative viability (Bosutinib + Lapatinib; first compound 0.03162 µM) was 1.05 and the relative viability (Bosutinib + Lapatinib; first compound 0.1 µM) was 1.06. The relative viability (Bosutinib + Lapatinib; first compound 1 µM) was 1.03, the relative viability (Bosutinib + Pictilisib; first compound 0.01 µM) was 0.442 and the relative viability (Bosutinib + Pictilisib; first compound 0.03162 µM) was 0.447. The relative viability (Bosutinib + Pictilisib; first compound 0.1 µM) was 0.494, the relative viability (Bosutinib + Pictilisib; first compound 1 µM) was 0.513 and the relative viability (Bosutinib + Crizotinib; first compound 0.01 µM) was 0.761. For the same cell line, the relative viability (Bosutinib + Crizotinib; first compound 0.03162 µM) was 0.66, the relative viability (Bosutinib + Crizotinib; first compound 0.1 µM) was 0.724 and the relative viability (Bosutinib + Crizotinib; first compound 1 µM) was 1.01. For the same cell line, the relative viability (Bosutinib + Linsitinib; first compound 0.01 µM) was 0.676, the relative viability (Bosutinib + Linsitinib; first compound 0.03162 µM) was 0.624 and the relative viability (Bosutinib + Linsitinib; first compound 0.1 µM) was 0.55. The relative viability (Bosutinib + Linsitinib; first compound 1 µM) was 0.499, the relative viability (Bosutinib + Alpelisib; first compound 0.01 µM) was 0.731 and the relative viability (Bosutinib + Alpelisib; first compound 0.03162 µM) was 0.78. For the same cell line, the relative viability (Bosutinib + Alpelisib; first compound 0.1 µM) was 0.734, the relative viability (Bosutinib + Alpelisib; first compound 1 µM) was 0.621 and the relative viability (Bosutinib + Phenformin; first compound 0.01 µM) was 0.197. The relative viability (Bosutinib + Phenformin; first compound 0.03162 µM) was 0.169, the relative viability (Bosutinib + Phenformin; first compound 0.1 µM) was 0.149 and the relative viability (Bosutinib + Phenformin; first compound 1 µM) was 0.124. The relative viability (Bosutinib + Decitabine; first compound 0.01 µM) was 0.279, the relative viability (Bosutinib + Decitabine; first compound 0.03162 µM) was 0.226 and the relative viability (Bosutinib + Decitabine; first compound 0.1 µM) was 0.237. It also gave a relative viability (Bosutinib + Decitabine; first compound 1 µM) of 0.261, a relative viability (Bosutinib + Olaparib; first compound 0.01 µM) of 0.52 and a relative viability (Bosutinib + Olaparib; first compound 0.03162 µM) of 0.447. For the same cell line, the relative viability (Bosutinib + Olaparib; first compound 0.1 µM) was 0.357 and the relative viability (Bosutinib + Olaparib; first compound 1 µM) was 0.286.
